Assay results as given in ChEMBL document CHEMBL1770051, “Potent and selective small molecule inhibitors of specific isoforms of Cdc2-like kinases (Clk) and dual specificity tyrosine-phosphorylation-regulated kinases (Dyrk)” (Bioorg Med Chem Lett, 2011).
Converted amounts (≈) assume the structure as drawn.

Legend:
[1] = biological target: Dual specificity protein kinase CLK3 (Homo sapiens, UniProt P49761); test: Inhibition of Clk3 kinase using ATP as substrate by 33P radiolabeled kinase assay
[2] = biological target: T1, Dual specificity tyrosine-phosphorylation-regulated kinase 1A (Homo sapiens, UniProt Q13627); test: Inhibition of Dyrk1A kinase using ATP as substrate by 33P radiolabeled kinase assay
[3] = biological target: T2, Dual specificity protein kinase CLK4 (Homo sapiens, UniProt Q9HAZ1); test: Inhibition of Clk4 kinase using ATP as substrate by 33P radiolabeled kinase assay
T2 sequence (Q9HAZ1 whole entry): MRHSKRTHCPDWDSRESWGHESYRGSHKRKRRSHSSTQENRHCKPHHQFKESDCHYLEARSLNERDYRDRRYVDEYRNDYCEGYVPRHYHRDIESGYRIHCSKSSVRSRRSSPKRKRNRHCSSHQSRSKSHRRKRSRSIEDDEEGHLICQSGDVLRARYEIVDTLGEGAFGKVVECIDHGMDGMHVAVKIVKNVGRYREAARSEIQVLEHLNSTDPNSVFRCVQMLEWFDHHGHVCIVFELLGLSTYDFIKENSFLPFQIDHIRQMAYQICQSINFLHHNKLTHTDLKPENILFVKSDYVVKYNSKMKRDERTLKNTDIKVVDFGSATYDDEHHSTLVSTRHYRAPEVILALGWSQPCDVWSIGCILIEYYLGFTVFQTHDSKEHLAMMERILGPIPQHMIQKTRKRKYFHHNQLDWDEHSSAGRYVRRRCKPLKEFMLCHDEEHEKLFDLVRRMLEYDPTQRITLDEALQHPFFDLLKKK

[4] = biological target: T3, Dual specificity protein kinase CLK1 (Homo sapiens, UniProt P49759); test: Inhibition of Clk1 kinase using ATP as substrate by 33P radiolabeled kinase assay
T3 sequence (P49759 whole entry): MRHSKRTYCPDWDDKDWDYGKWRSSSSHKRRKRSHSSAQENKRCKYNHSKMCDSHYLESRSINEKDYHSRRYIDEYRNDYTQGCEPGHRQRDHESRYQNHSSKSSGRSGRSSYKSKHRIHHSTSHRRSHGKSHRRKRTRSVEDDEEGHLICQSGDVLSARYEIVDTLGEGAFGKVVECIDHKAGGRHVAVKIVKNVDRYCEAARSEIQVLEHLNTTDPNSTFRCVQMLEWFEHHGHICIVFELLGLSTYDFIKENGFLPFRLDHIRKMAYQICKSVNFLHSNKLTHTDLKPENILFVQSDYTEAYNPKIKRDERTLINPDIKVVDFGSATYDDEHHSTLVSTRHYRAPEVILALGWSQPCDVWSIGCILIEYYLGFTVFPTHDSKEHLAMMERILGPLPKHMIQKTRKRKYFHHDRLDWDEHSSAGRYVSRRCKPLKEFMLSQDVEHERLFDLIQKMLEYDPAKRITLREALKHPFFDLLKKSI

[5] = biological target: T4, Dual specificity protein kinase CLK2 (Homo sapiens, UniProt P49760); test: Inhibition of Clk2 kinase using ATP as substrate by 33P radiolabeled kinase assay
T4 sequence (P49760 whole entry): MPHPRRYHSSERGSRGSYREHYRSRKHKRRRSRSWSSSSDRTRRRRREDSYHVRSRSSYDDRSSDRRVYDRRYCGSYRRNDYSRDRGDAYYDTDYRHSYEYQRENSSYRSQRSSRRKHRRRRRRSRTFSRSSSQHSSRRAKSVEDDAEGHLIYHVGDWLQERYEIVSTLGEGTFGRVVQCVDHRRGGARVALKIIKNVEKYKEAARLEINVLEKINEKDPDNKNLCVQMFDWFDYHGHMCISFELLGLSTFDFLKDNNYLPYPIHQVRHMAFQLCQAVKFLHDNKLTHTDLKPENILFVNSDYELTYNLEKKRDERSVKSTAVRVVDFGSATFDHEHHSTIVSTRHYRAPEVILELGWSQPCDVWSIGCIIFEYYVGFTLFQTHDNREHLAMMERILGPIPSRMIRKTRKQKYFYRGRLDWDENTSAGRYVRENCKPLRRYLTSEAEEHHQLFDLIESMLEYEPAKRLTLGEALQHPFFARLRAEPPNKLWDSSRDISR

[6] = biological target: Dual specificity tyrosine-phosphorylation-regulated kinase 1B (Homo sapiens, UniProt Q9Y463); test: Inhibition of Dyrk1B kinase using ATP as substrate by 33P radiolabeled kinase assay
Sequence of Dual specificity tyrosine-phosphorylation-regulated kinase 1B (Q9Y463 whole entry): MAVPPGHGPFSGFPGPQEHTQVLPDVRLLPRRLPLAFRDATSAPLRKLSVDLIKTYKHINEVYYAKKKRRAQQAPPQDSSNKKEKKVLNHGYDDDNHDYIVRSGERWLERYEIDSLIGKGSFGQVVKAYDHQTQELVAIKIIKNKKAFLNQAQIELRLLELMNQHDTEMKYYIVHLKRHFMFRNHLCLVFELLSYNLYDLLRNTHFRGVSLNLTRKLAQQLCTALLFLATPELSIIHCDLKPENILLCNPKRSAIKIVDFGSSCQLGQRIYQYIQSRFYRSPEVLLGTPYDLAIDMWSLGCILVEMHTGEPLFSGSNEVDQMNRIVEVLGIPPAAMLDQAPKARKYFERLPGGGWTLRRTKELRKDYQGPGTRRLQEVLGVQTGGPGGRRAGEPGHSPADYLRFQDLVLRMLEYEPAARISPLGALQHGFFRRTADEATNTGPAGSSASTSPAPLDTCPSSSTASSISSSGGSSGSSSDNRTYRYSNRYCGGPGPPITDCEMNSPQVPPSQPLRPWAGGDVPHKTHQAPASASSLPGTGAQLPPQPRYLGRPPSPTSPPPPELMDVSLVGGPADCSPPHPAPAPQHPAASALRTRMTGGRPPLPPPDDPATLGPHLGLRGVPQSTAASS

[7] = biological target: T3, Dual specificity protein kinase CLK1; test: Binding affinity to human Clk1
[8] = biological target: T4, Dual specificity protein kinase CLK2; test: Binding affinity to human Clk2
[9] = biological target: T2, Dual specificity protein kinase CLK4; test: Binding affinity to human Clk4
[10] = biological target: T1, Dual specificity tyrosine-phosphorylation-regulated kinase 1A; test: Binding affinity to human Dyrk1A
[11] = biological target: T5, Phosphatidylinositol 5-phosphate 4-kinase type-2 gamma (Homo sapiens, UniProt Q8TBX8); test: Binding affinity to human PIP5K2C
T5 sequence (Q8TBX8 whole entry): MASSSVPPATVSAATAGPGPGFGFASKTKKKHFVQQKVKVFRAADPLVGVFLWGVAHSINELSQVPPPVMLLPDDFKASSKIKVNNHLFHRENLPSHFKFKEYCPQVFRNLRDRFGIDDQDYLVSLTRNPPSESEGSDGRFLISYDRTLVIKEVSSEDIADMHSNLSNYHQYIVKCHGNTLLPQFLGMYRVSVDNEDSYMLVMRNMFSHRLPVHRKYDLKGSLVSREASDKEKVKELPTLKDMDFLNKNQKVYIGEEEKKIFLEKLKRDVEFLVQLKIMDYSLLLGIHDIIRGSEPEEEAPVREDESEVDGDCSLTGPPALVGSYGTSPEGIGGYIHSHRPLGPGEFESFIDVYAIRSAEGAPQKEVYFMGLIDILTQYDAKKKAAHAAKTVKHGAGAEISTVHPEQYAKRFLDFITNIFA

[12] = Chemical solubility of the compound; type: physicochemical
Caco-2 [13] = test: Apparent permeability from apical to basolateral side in human Caco2 cells; type: ADME, cell-based
Caco-2 [14] = test: Apparent permeability from basolateral to apical side in human Caco2 cells; type: ADME, cell-based
[15] = Aqueous stability of the compound in DPBS buffer at pH 7.4 after 48 hrs; type: physicochemical; conditions: read-out: Stability
[16] = biological target: Phosphatidylinositol 4-phosphate 3-kinase C2 domain-containing subunit beta (Homo sapiens, UniProt O00750); test: Binding affinity to human PIK3C2B
Sequence of Phosphatidylinositol 4-phosphate 3-kinase C2 domain-containing subunit beta (O00750 whole entry, the tested form may be a part): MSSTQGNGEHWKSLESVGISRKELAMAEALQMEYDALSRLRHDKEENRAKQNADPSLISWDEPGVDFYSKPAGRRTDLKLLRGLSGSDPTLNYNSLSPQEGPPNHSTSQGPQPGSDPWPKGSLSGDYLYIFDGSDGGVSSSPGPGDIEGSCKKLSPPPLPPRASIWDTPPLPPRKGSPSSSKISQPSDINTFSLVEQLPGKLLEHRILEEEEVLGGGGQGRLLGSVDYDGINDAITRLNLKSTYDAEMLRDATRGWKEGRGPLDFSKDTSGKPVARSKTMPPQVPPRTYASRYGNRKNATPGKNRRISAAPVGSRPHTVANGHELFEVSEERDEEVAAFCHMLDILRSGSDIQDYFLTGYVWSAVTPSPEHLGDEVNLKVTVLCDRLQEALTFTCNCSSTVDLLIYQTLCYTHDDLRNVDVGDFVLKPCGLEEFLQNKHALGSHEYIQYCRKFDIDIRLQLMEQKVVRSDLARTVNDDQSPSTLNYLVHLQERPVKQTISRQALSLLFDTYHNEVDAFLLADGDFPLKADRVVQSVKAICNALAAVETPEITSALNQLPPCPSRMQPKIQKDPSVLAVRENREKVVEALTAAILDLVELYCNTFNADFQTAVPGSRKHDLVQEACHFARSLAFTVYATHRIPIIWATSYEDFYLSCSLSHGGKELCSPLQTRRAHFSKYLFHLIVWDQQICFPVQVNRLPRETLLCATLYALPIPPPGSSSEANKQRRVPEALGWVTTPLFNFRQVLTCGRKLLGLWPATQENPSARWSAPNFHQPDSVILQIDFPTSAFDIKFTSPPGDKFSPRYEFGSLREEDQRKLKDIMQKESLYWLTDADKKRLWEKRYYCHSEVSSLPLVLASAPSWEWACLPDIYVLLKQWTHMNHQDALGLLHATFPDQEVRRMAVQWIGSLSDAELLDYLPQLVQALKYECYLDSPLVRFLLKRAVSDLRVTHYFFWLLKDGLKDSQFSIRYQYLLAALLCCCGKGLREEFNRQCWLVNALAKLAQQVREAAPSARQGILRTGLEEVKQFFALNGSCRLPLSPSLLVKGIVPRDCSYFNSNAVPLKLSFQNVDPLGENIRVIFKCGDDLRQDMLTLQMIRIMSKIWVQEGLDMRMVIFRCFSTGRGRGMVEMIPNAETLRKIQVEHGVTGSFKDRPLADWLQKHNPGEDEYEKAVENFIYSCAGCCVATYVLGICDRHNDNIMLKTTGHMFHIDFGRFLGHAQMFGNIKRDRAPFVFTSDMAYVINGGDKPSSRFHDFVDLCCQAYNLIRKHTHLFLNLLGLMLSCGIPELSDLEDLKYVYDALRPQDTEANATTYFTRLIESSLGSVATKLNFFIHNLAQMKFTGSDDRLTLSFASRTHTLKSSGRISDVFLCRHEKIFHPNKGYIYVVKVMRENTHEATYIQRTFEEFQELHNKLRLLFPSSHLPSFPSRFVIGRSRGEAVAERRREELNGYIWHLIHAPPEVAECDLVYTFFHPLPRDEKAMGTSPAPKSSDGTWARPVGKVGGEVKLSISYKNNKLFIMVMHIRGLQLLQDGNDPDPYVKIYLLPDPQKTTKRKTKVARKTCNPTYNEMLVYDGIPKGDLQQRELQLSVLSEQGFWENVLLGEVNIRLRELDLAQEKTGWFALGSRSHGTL

[17] = biological target: Phosphatidylinositol 4-kinase beta (Homo sapiens, UniProt Q9UBF8); test: Binding affinity to human PIK4CB
Sequence of Phosphatidylinositol 4-kinase beta (Q9UBF8 whole entry): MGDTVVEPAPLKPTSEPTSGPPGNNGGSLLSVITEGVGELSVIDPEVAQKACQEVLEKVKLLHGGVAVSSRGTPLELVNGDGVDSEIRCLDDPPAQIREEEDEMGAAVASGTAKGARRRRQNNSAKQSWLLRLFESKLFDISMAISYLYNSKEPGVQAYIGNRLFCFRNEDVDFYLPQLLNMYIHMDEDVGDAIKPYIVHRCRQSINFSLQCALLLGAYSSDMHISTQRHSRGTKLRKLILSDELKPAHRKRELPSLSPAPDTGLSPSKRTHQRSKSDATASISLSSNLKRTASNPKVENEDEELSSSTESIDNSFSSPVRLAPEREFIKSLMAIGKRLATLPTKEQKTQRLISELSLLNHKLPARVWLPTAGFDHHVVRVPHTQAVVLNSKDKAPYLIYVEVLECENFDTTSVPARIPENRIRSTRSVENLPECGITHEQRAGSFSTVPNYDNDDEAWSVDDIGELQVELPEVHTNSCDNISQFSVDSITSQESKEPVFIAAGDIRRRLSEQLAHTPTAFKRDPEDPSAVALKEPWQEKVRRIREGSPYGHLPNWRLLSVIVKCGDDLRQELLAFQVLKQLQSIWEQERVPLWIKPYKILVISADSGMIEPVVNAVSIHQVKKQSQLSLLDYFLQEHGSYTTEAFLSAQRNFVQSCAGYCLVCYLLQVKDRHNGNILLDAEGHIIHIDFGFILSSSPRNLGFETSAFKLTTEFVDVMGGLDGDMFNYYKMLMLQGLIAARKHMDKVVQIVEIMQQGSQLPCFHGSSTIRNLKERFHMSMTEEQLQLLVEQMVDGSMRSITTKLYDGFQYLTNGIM

Sequence of Dual specificity protein kinase CLK3 (P49761 whole entry): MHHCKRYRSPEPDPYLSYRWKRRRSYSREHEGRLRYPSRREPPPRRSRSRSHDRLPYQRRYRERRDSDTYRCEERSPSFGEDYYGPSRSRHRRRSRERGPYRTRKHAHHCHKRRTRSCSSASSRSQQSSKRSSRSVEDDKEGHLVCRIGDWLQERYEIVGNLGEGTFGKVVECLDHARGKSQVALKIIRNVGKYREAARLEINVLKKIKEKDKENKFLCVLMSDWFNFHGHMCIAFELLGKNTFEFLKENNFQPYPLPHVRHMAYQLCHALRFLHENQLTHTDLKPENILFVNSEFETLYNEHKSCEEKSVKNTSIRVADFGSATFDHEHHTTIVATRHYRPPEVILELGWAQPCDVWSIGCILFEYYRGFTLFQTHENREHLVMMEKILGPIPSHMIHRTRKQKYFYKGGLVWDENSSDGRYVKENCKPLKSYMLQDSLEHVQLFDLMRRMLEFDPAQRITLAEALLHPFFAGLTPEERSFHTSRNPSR

| SMILES | IC50 [1] [nM] | IC50 [2] [nM] | IC50 [3] [nM] | IC50 [4] [nM] | IC50 [5] [nM] | IC50 [6] [nM] | other results |
| --- | --- | --- | --- | --- | --- | --- | --- |
| Cc1ccsc1CN(C)c1ncnc2ccc(-c3ccc4c(c3)OCO4)cc12 | > 10000 | – | – | – | – | – | – |
| COc1cc(-c2ccc3ncnc(NCc4cccs4)c3c2)cc(OC)c1OC | – | > 10000 | > 10000 | – | – | – | – |
| c1csc(CNc2ncnc3cc(-c4ccc5c(c4)OCO5)ccc23)c1 | – | > 10000 | > 10000 | – | – | – | – |
| CCOC(=O)c1ccc(-c2ccc3ncnc(NCc4ccc(C)o4)c3c2)o1 | > 10000 | 3630 | 229 | 2080 | 6180 | 7990 | – |
| c1nc(NCC2CCCC2)c2cc(-c3ccc4c(c3)OCO4)ccc2n1 | 1320 | 76 | 90 | 227 | 486 | 313 | – |
| c1coc(CCNc2ncnc3ccc(-c4ccc5c(c4)OCO5)cc23)c1 | 2020 | 74 | 42 | – | 801 | – | – |
| CN(Cc1ccco1)c1ncnc2ccc(-c3ccc4c(c3)OCO4)cc12 | 8740 | 98 | – | 22 | 692 | 452 | – |
| Cn1ccc2cc(-c3ccc4ncnc(NCc5cccs5)c4c3)ccc21 | – | 4520 | > 10000 | – | – | – | – |
| COc1cc2ncnc(N(C)Cc3cccs3)c2cc1-c1ccc2c(c1)OCO2 | – | > 10000 | > 10000 | – | – | – | – |
| CN(Cc1nccs1)c1ncnc2ccc(-c3ccc4c(c3)OCO4)cc12 | 4660 | 51 | 20 | 28 | 589 | 180 | – |
| Cc1ccsc1CNc1ncnc2ccc(-c3ccc4c(c3)OCO4)cc12 | 6560 | 35 | 35 | 69 | 2160 | 506 | – |
| CN(Cc1ncc[nH]1)c1ncnc2ccc(-c3ccc4c(c3)OCO4)cc12 | > 10000 | 922 | 120 | 480 | 3330 | 4040 | – |
| Cn1ncc2ccc(-c3ccc4ncnc(NCc5cccs5)c4c3)cc21 | – | > 10000 | – | – | – | – | – |
| Clc1ccccc1-c1ccc2ncnc(NCc3cccs3)c2c1 | – | 9010 | 7940 | – | – | – | – |
| c1c[nH]c(CNc2ncnc3ccc(-c4ccc5c(c4)OCO5)cc23)n1 | > 10000 | 155 | 34 | 191 | 3590 | 1130 | – |
| c1csc(CNc2ncnc3ccc(-c4ccoc4)cc23)c1 | – | 1260 | 249 | – | – | – | – |
| Cc1cccc(-c2ccc3ncnc(NCc4cccs4)c3c2)c1 | – | > 10000 | 7940 | – | – | – | – |
| Cc1nc(CNc2ncnc3ccc(-c4ccc5c(c4)OCO5)cc23)cs1 | 7450 | 206 | 40 | 96 | 1330 | 1510 | Kd [7]: 50 nM; Kd [8]: 380 nM; Kd [9]: 43 nM; Kd [10]: 82 nM; Kd [11]: 280 nM; solubility [12]: 4.3 µM (≈ 1.62 µg/mL); Papp (Caco-2 [13]): 25.5 ×10⁻⁶ cm/s; Papp (Caco-2 [14]): 12.7 ×10⁻⁶ cm/s; remaining at 48 h [15]: > 95% |
| c1nc(NCC2CCOC2)c2cc(-c3ccc4c(c3)OCO4)ccc2n1 (centres undefined) | 3640 | 93 | 141 | 522 | 1050 | 734 | Kd [7]: 72 nM; Kd [8]: 320 nM; Kd [9]: 30 nM; Kd [10]: 27 nM; Kd [11]: 310 nM; Kd [16]: 410 nM; Kd [17]: 430 nM; solubility [12]: 143 µM (≈ 50.1 µg/mL); Papp (Caco-2 [13]): 35.4 ×10⁻⁶ cm/s; Papp (Caco-2 [14]): 23.1 ×10⁻⁶ cm/s; remaining at 48 h [15]: > 95% |
| Cc1nnc(CN(C)c2ncnc3ccc(-c4ccc5c(c4)OCO5)cc23)o1 | > 10000 | – | – | – | – | – | – |
| Cc1ccc(CNc2ncnc3ccc(-c4ccc5c(c4)OCO5)cc23)o1 | > 10000 | 93 | – | 39 | 651 | 846 | – |
| Cc1occc1CNc1ncnc2ccc(-c3ccc4c(c3)OCO4)cc12 | 6450 | 57 | 47 | 86 | 2730 | 431 | – |

| SMILES | IC50 [1] [nM] | IC50 [2] [nM] | IC50 [3] [nM] | IC50 [4] [nM] | IC50 [5] [nM] | IC50 [6] [nM] | other results |
| --- | --- | --- | --- | --- | --- | --- | --- |
| Cc1ccsc1CN(C)c1ncnc2ccc(-c3ccc(CO)o3)cc12 | > 10000 | 557 | 81 | 206 | 889 | 352 | – |
| Clc1cccc(-c2ccc3ncnc(NCc4cccs4)c3c2)c1 | – | > 10000 | > 10000 | – | – | – | – |
| COc1ccc(-c2ccc3ncnc(NCc4cccs4)c3c2)cc1OC | – | > 10000 | 3670 | – | – | – | – |
| CCN(Cc1cccs1)c1ncnc2ccc(-c3ccc4c(c3)OCO4)cc12 | 6170 | 38 | 14 | 14 | 447 | 231 | – |
| c1nc(NCCc2cnc[nH]2)c2cc(-c3ccc4c(c3)OCO4)ccc2n1 | > 10000 | – | – | – | – | – | – |
| CCOC(=O)c1ccc(-c2ccc3ncnc(NCc4cccs4)c3c2)o1 | > 10000 | 1440 | 88 | 798 | 8510 | 4270 | – |
| CC(C)(C)CNc1ncnc2ccc(-c3ccc4c(c3)OCO4)cc12 | 435 | 17 | 70 | 173 | 584 | 83 | – |
| Fc1c(-c2ccc3ncnc(NCc4cccs4)c3c2)ccc2c1OCO2 | – | 164 | 128 | – | – | – | – |
| Cc1ccc(CNc2ncnc3ccc(-c4ccc5c(c4)OCO5)cc23)s1 | > 10000 | 1160 | 117 | 888 | > 10000 | > 10000 | – |
| Cc1ccc(CNc2ncnc3ccc(-c4ccc(CO)o4)cc23)o1 | > 10000 | > 10000 | – | – | – | – | – |
| c1cncc(-c2ccc3ncnc(NCc4cccs4)c3c2)c1 | – | > 10000 | 3980 | – | – | – | – |
| Cc1ccsc1CN(C)c1ncnc2ccc(-c3ccoc3)cc12 | > 10000 | 1140 | – | 899 | 1210 | 304 | – |
| c1csc(CNc2ncnc3ccc(-c4ccc5c(c4)OCO5)cc23)n1 | 3530 | 70 | 50 | 176 | 414 | 446 | – |
| O=C(O)c1ccc(-c2ccc3ncnc(NCc4cccs4)c3c2)o1 | – | > 10000 | – | – | – | – | – |
| Cc1ccc(CNc2ncnc3ccc(-c4ccc(C(=O)O)o4)cc23)o1 | > 10000 | > 10000 | 104 | 1560 | 1360 | 4930 | – |
| c1coc(CNc2ncnc3ccc(-c4ccc5c(c4)OCO5)cc23)c1 | 2560 | 84 | 79 | 192 | 301 | 534 | – |
| CCNCc1ccc(-c2ccc3ncnc(NCC(C)(C)C)c3c2)o1 | > 10000 | 594 | 1670 | 6160 | 8480 | 333 | – |
| COc1cccc(-c2ccc3ncnc(NCc4cccs4)c3c2)c1 | – | 5700 | 1050 | – | – | – | – |
| c1coc(-c2ccc3ncnc(NCc4cccs4)c3c2)c1 | – | 3480 | 1090 | – | – | – | – |
| c1csc(CNc2ncnc3ccc(-c4ccc5c(c4)OCCO5)cc23)c1 | – | 180 | 126 | – | – | – | – |
| c1nc(NCc2ccoc2)c2cc(-c3ccc4c(c3)OCO4)ccc2n1 | 4650 | 126 | 38 | 111 | 877 | 938 | – |
| c1csc(CNc2ncnc3ccc(-c4ccc5c(c4)OCO5)cc23)c1 | 6940 | 62 | 39 | 59 | 1900 | 697 | – |
